Test [1] relates to dog Purkinje fiber preparations. The experiment in a line: Conventional microelectrode action potential recording, dog Purkinje fibers. As to conditions: CL = 500 ms, n = 10. As to the method:
(§1) The effects of SZV-2649 on action potentials were studied in dog ventricular, atrial and Purkinje fiber preparations.
(§2) Action potentials were recorded in cardiac ventricular trabeculae and papillary muscle preparations obtained from the right ventricles of Beagle dogs (10–15 kg) of either sex using the conventional microelectrode technique. Dogs were sacrificed by iv. sedation with xylazine (1 mg/kg), followed by i.v. administration of 50 mg/kg pentobarbital. After the cornea reflex disapeared the chest was opened, and the heart was rapidly removed. The heart was immediately rinsed in oxygenated modified Locke’s solution containing (in mM): NaCl 128.3, KCl 4, CaCl2 1.8, MgCl2 0.42, NaHCO3 21.4, and glucose 10. The pH of this solution was set between 7.35 and 7.4 when gassed with the mixture of 95% O2 and 5% CO2 at 37 °C.
Isolated papillary muscle or atrial trabecula and Purkinje fiber preparations were obtained and prepared from the right ventricle and were individually mounted in a tissue chamber with the volume of 50 ml. Each preparation was initially stimulated through a pair of platinum electrodes in contact with the preparation using rectangular current pulses of 2 ms duration. These stimuli were delivered at a constant cycle length of 1000 ms for at least 60 min allowing the preparation to equilibrate before the measurements were initiated. Transmembrane potentials were recorded using conventional glass microelectrodes, filled with 3 M KCl and having tip resistances of 5–20 MΩ, connected to the input of a high impedance electrometer (Experimetria, type 309, Budapest, Hungary) which was coupled to a dual beam oscilloscope. […] Attempts were made to maintain the same impalement throughout each experiment. In case an impalement became dislodged, adjustment was attempted, and if the action potential characteristics of the re-established impalement deviated by less than 5% from the previous measurement, the experiment continued[64]–[67]. All measurements were carried out at 37 °C.

Another test deals with dog atrial muscle. The experiment in a line: Conventional microelectrode action potential recording, dog atrial muscle. As to conditions: for APA / APD50 / APD90 / RP / Vmax: atrial muscle, CL = 1000 ms, n = 11. As to the method:
as §1, §2
Isolated papillary muscle or atrial trabecula and Purkinje fiber preparations were obtained and prepared from the right ventricle and were individually mounted in a tissue chamber with the volume of 50 ml. Each preparation was initially stimulated through a pair of platinum electrodes in contact with the preparation using rectangular current pulses of 2 ms duration. These stimuli were delivered at a constant cycle length of 1000 ms for at least 60 min allowing the preparation to equilibrate before the measurements were initiated. Transmembrane potentials were recorded using conventional glass microelectrodes, filled with 3 M KCl and having tip resistances of 5–20 MΩ, connected to the input of a high impedance electrometer (Experimetria, type 309, Budapest, Hungary) which was coupled to a dual beam oscilloscope. […] Stimulation with a constant cycle length of 1000 ms was applied in the course of all experiments. Attempts were made to maintain the same impalement throughout each experiment. In case an impalement became dislodged, adjustment was attempted, and if the action potential characteristics of the re-established impalement deviated by less than 5% from the previous measurement, the experiment continued[64]–[67]. All measurements were carried out at 37 °C.

In test [1] (5 µM), `CC(N)COc1c(I)cc(C#N)cc1I.Cl` (stereo not shown) [SZV-2649, 4-(2-aminopropoxy)-3,5-diiodobenzonitrile hydrochloride] returned an APA of 123.8 ± 2.3 mV, an APD50 of 113.6 ± 5.6 ms, an APD90 of 217.4 ± 5.1 ms and an RP of −84.7 ± 1.7 mV. Also, in test [1] (5 µM), the Vmax is reported as 507.4 ± 53.4 V/s. In test [1] (10 µM), this compound returned an APA of 119.2 ± 3.3 mV, an APD50 of 112.4 ± 7.9 ms, an APD90 of 223.4 ± 5.6 ms and an RP of −86.0 ± 1.1 mV. Besides, the Vmax in test [1] (10 µM) was 415.0 ± 28.9 V/s. The Vmax in test [1] ([…]) is on record as 581.1 ± 39.0 V/s. In the test with dog atrial muscle (5 µM), this compound came in with an APA of 108.8 ± 1.9 mV, an APD50 of 73.3 ± 6.2 ms, an APD90 of 168.9 ± 8.8 ms and an RP of −88.2 ± 1.8 mV. Besides, the Vmax in the test on dog atrial muscle (5 µM) worked out at 195.3 ± 22.0 V/s. Further, in the test on dog atrial muscle (10 µM), the APA was 102.6 ± 3.2 mV, the APD50 was found to be 70.1 ± 6.2 ms, the APD90 stood at 176.8 ± 8.5 ms and the RP is −85.1 ± 1.7 mV. Moreover, in the test on dog atrial muscle (10 µM), the Vmax turned out to be 145.9 ± 12.1 V/s. In the test on dog atrial muscle (10 µM, dog atrial muscle), the “Prolongation of repolarization (APD) in the absence of carbachol” value amounted to 10%.

The values are drawn from article PMC11455950, “Effects of SZV-2649, a new multiple ion channel inhibitor mexiletine analogue” (Scientific Reports, 2024).
